Experimental findings from patent EP0184822A2, “Novel anilide derivatives of substituted arylacetic acids” (SUMITOMO PHARMACEUTICALS COMPANY, LIMITED, priority 1984, dated 1986) are described below.

The test system of this experiment is ddy-mice. Description: Antihypoxic activity (survival time of mice under reduced pressure, 190 mmHg). In kind it is in vivo. The note with it: Mus musculus, ip, injected intraperitoneally usually 30 minutes before the test, desiccator at 190 mmHg, effective = mean survival time above 140 sec and p<0.05 vs control. How it is done:
Six ddy-mice weighing 20 - 27 g were used. Test compound was dissolved in saline or suspended in 0.5 % carboxymethylcellulose and injected intraperitoneally usually 30 minutes before the test at a dosage of 0.1 ml per 10 g of the bodyweight. Two mice were placed in a desiccator, the inside pressure of which was lowered to 190 mmHg within 2 to 3 seconds, and the survival time as well as the time interval between the start of the evacuation and the cessation of respiration was determined. The survival time of the mice which lived longer than 300 seconds was taken as 300 sec.
In turn, `CN(C)CCCOC1(Cc2ccccc2)CCCCCC1` [Bencyclane, reference compound] yielded a minimal effective dose of less than 30 mg/kg.
In turn, `NC(=O)c1cccc(NC(=O)C(Cc2ccccc2)c2ccccc2)c1` (stereo not drawn) [Example 1, alpha-benzyl-N-(3-carbamoylphenyl)benzeneacetamide] displayed a minimal effective dose of less than 10 mg/kg.
The compound `O=C(Nc1cccc(O)c1)C(Cc1ccccc1)c1ccccc1` (stereo not shown) [Example 7] had a minimal effective dose of less than 10 mg/kg.
To `NC(=O)c1cccc(NC(=O)C(CCCc2ccccc2)c2ccccc2)c1` (stereo not shown) [Example 18] belongs less than 10 mg/kg.
With `O=C(Nc1cccc(O)c1)C(CCCc1ccccc1)c1ccccc1` (stereo not shown) [Example 23], the minimal effective dose was less than 10 mg/kg.
For the compound `NS(=O)(=O)c1ccc(NC(=O)C(CCc2ccccc2)c2ccc(Cl)cc2)cc1` (stereo not shown) [Example 38], the minimal effective dose was less than 10 mg/kg.
For `Cc1ccc(C(CCc2ccccc2)C(=O)Nc2ccc(S(N)(=O)=O)cc2)cc1` (stereo not shown) [Example 40], the minimal effective dose is less than 10 mg/kg.
On to `CCC(C(=O)Nc1ccc(O)cc1)c1ccccc1` (stereo not shown) [Known product (see page 2), reference compound], for which the minimal effective dose was greater than 30 mg/kg.
The same measure for `COc1ccc(Cc2nccc3cc(OC)c(OC)cc23)cc1OC` [Papaverine, reference compound]: less than 30 mg/kg; for `CC[C@]12CCCN3CCc4c(n(c5ccccc45)[C@@](O)(C(=O)OC)C1)[C@@H]32` [Vincamine, reference compound]: less than 30 mg/kg.

By minimal effective dose is commonly meant the lowest level tested that produced the effect sought. Lower therefore signals an effect from little substance.
